Reference: patent publication US10758468B2, “Solubilizer for cosmetic preparations” (Symrise AG, priority 2010, dated 2020)
One block for each molecule: values may come before it.

Assay: Assessment of turbidity (transparency) of compositions at production and after 3 months storage
Conditions: water to 100; for Assessment of turbidity: Storage at 5° C. / Assessment of turbidity: Storage at 40° C.: after 3 months
[1] = 0.10 wt. % bisabolol, 2.00 Solubilizer U.53787M, 0.50 pentane-1,2-diol
[2] = 0.10 wt. % bisabolol, 2.00 Solubilizer U.53787M, 1.00 1,2-propylene glycol
[3] = 0.10 wt. % bisabolol, 2.00 Solubilizer U.53787M, 2.50 pentane-1,2-diol
[4] = 0.10 wt. % bisabolol, 2.00 Solubilizer U.53787M, 3.00 1,2-propylene glycol
[5] = 0.10 wt. % bisabolol, 2.00 Solubilizer U.53787M, 4.00 glycerol
[6] = 0.20 wt. % bisabolol, 2.00 Solubilizer A, 5.00 glycerol
[7] = 0.40 wt. % menthyl lactate, 2.00 Solubilizer U.53787M, 5.00 glycerol
[8] = 0.40 wt. % menthyl lactate, 2.00 Solubilizer U.53787M, 5.00 pentane-1,2-diol
[9] = 0.50 wt. % menthyl lactate, 2.00 Solubilizer B, 5.00 glycerol

Procedure: The transparency (clarity) of the compositions was determined after 3 months at the constant storage temperature stated in each case.

Amount of organic substance incorporated with the composition remaining clear and stable (framework formulation: 2.00 wt. % Solubilizer U.53787M, 5.00 glycerol, production at 25°, storage 3 months at 5° C. and 40° C.): 0.10 wt. %
SMILES: CC(C)(C)C(=O)C(Oc1ccc(Cl)cc1)n1ccnc1 (stereo not shown) [Crinipan® AD, climbazole]

Assessment of turbidity: Production at 25° [1]: clear | Assessment of turbidity: Production at 25° [2]: clear | Assessment of turbidity: Production at 25° [3]: clear | Assessment of turbidity: Production at 25° [4]: clear | Assessment of turbidity: Production at 25° [5]: clear | Assessment of turbidity: Production at 25° [6]: clear | Assessment of turbidity: Storage at 5° C. [1]: clear | Assessment of turbidity: Storage at 40° C. [1]: clear | Assessment of turbidity: Storage at 5° C. [2]: clear | Assessment of turbidity: Storage at 40° C. [2]: clear | Assessment of turbidity: Storage at 5° C. [3]: clear | Assessment of turbidity: Storage at 40° C. [3]: clear | Assessment of turbidity: Storage at 5° C. [4]: clear | Assessment of turbidity: Storage at 40° C. [4]: clear | Assessment of turbidity: Storage at 5° C. [5]: clear | Assessment of turbidity: Storage at 40° C. [5]: clear | Assessment of turbidity: Storage at 5° C. [6]: clear | Assessment of turbidity: Storage at 40° C. [6]: clear
SMILES: CC(C)=CCC[C@](C)(O)C1CC=C(C)CC1 (stereo partly shown) [Bisabolol]

Assessment of turbidity: Production at 25° [7]: clear | Assessment of turbidity: Production at 25° [8]: clear | Assessment of turbidity: Production at 25° [9]: clear | Assessment of turbidity: Storage at 5° C. [7]: clear | Assessment of turbidity: Storage at 40° C. [7]: clear | Assessment of turbidity: Storage at 5° C. [8]: clear | Assessment of turbidity: Storage at 40° C. [8]: clear | Assessment of turbidity: Storage at 5° C. [9]: clear | Assessment of turbidity: Storage at 40° C. [9]: clear
SMILES: CC1CCC(C(C)C)C(OC(=O)C(C)O)C1 (stereo not shown) [Frescolat ® ML, menthyl lactate]
